Measured values reported in US20090297645A1, “Fibroblast Activator and Method of Activating Fibroblast, Collagen Synthesis Promoter and Method of Promoting Collagen Synthesis, and Skin Antiaging Agent and Method of Preventing Aging of Skin” (priority 2005, published 2009).

What was measured:
[1] = tested on: Normal human fibroblasts; assay: Test of fibroblast activation function (MTT formazan); type: cell-based; conditions: positive control, DMEM containing 5 percent FBS, 48 hours, control = 100, n = 5
Experimental: 3-(4,5-Dimethyl-2-thiazolyl)-2,5-diphenyl-2H-tetrazolium […] (MTT) cleaves NADPH or NADH produced in energy metabolic processes in mitochondria within cells to produce formazan. Thus, the quantity of formazan produced was adopted as an indicator of cell activation function.
Normal human fibroblasts were seeded onto a 96-well microplate at a cell density of 3.0×10^4 cells/well. After culturing for 24 hours in Dulbecco's modified eagle medium (DMEM) containing 1 percent fetal bovine serum (FBS), the medium was replaced with DMEM containing 1 percent FBS containing a freeze-dried product of grape sap in the concentration shown in Table 1. A positive control (PC) in the form of DMEM containing 5 percent FBS was employed. […]
The cells were washed, the formazan produced in the cells was dissolved in 2-propanol, and a microplate reader was employed to measure the absorbance at 550 nm and 650 nm. The difference between the two was calculated to evaluate the quantity of formazan generated within the cells. Cell activation function was denoted by an activation index (%) with the absorbance (ABS.) of cultivated cells to which no sample was added (control) being denoted as 100. […] The p value was determined to be significant when p<0.05.

[2] = tested on: Normal human fibroblasts; assay: Test of collagen synthesis promoting function of fibroblasts (type I collagen ELISA, BCA protein); type: cell-based; conditions: positive control, concentration not given, 48 hours
Experimental: The collagen synthesis of fibroblasts was evaluated by quantifying the amount of secreted type I collagen in culture supernatant by ELISA.
Normal human fibroblasts were seeded onto a 96-well microplate at a cell density of 3.0×10^4 cells/well. After culturing for 24 hours in DMEM containing 0.5 percent FBS, the medium was replaced with DMEM containing 0.5 percent FBS containing a freeze-dried product of grape sap in the concentration shown in Table 2. A PC in the form of magnesium ascorbyl phosphate (VCPMg) was employed. After 48 hours, the culture supernatant was collected and the amount of type I collagen was quantified by ELISA.
Culture supernatant and calibration curve-use type I collagen were placed in a 96-well plate and coated overnight at 4° C. […] Twenty minutes later, a microplate reader was employed to measure the absorbance at 405 nm. The quantity of collagen in the culture supernatant was calculated from a calibration curve measured with the same plate.
At the same time, the quantity of cell protein was quantified using BCA protein assay reagent (PIERCE). The quantity of collagen in the culture supernatant was divided by the quantity of protein to calculate the quantity of collagen per unit of protein, which was adopted as the quantity of collagen synthesized by the cells. […] The p value was determined to be significant when p<0.05. […]

O=C1O[C@H]([C@@H](O)CO)C([O-])=C1OP(=O)([O-])[O-].O=C1O[C@H]([C@@H](O)CO)C([O-])=C1OP(=O)([O-])[O-].[Mg+2].[Mg+2].[Mg+2] [PC, magnesium ascorbyl phosphate]
Activation index (%) Mean ± SD [1]: 116.0 ± 2.9%
Collagen amount (ng/μg protein) Mean ± SD [2]: 32.9 ± 4.8 ng/μg protein
Protein amount (μg) Mean ± SD [2]: 11.2 ± 0.2 µg
